Legend:
IU1-47 + Foretinib = compound: CC1=CC(=C(N1C2=CC=C(C=C2)Cl)C)C(=O)CN3CCCCC3 [IU1-47] + COc1cc2c(Oc3ccc(NC(=O)C4(C(=O)Nc5ccc(F)cc5)CC4)cc3F)ccnc2cc1OCCCN1CCOCC1 [Foretinib] (partner 0.25 µM); assay: relative viability (nuclei count vs DMSO), 5 days (fraction); higher = more cells survive
Method in brief: (§1)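 Lung cancer cell lines in 1536-well plates were dosed by pin tool the day after seeding, either with one drug alone or with a fixed anchor-drug dose plus five library-drug doses (not always all listed) in √10 steps. After 5 days, cells were fixed and their nuclei stained in one step (final 0.05% Triton X-100, 1% formaldehyde, 1 ug/ml Hoechst), then counted on 4× images. Relative viability is the nuclei count in treated wells divided by that in vehicle wells. Values are medians of duplicate plates.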

FG-4592 + Tozasertib = compound: Cc1nc(C(=O)NCC(=O)O)c(O)c2ccc(Oc3ccccc3)cc12 [FG-4592] + Cc1cc(Nc2cc(N3CCN(C)CC3)nc(Sc3ccc(NC(=O)C4CC4)cc3)n2)n[nH]1 [Tozasertib] (partner 0.1 µM); assay: as above
Method in brief: as §1

| Cell Line | relative viability (IU1-47 + Foretinib; first compound 0.253 µM) | relative viability (IU1-47 + Foretinib; first compound 0.8 µM) | relative viability (IU1-47 + Foretinib; first compound 2.53 µM) | relative viability (IU1-47 + Foretinib; first compound 8 µM) | relative viability (FG-4592 + Tozasertib; first compound 0.08 µM) | relative viability (FG-4592 + Tozasertib; first compound 0.253 µM) | relative viability (FG-4592 + Tozasertib; first compound 0.8 µM) | relative viability (FG-4592 + Tozasertib; first compound 2.53 µM) | relative viability (FG-4592 + Tozasertib; first compound 8 µM) | relative viability (IU1-47 + Foretinib; first compound 0.08 µM) |
| --- | --- | --- | --- | --- | --- | --- | --- | --- | --- | --- |
| NCI-H3122 | 0.94 | 1.02 | 1.07 | 0.976 | 0.38 | 0.361 | 0.348 | 0.418 | 0.35 | – |
| COR-L23 | 1.09 | 1.08 | 1.02 | 1.16 | 0.186 | 0.212 | 0.217 | 0.153 | 0.171 | 1.14 |
| NCI-H2087 | 1.14 | 1.31 | – | 1.18 | 0.234 | 0.205 | 0.279 | 0.175 | 0.269 | 1.26 |
| LC-2-ad | 1.07 | 0.908 | 0.794 | 0.878 | 0.545 | 0.433 | – | 0.421 | 0.465 | 1 |
| NCI-H1915 | 1.12 | 1.15 | – | 1.1 | 0.405 | 0.439 | 0.497 | 0.444 | 0.369 | 1.12 |
| NCI-H522 | – | – | – | – | 0.493 | 0.625 | 0.545 | 0.539 | 0.437 | – |
| NCI-H1299 | 1.11 | 1.09 | 1.18 | 1.01 | – | – | – | – | – | 1.1 |
| NCI-H1648 | – | – | – | – | 0.536 | 0.527 | 0.515 | 0.47 | 0.542 | – |
| A549 | 1.09 | 0.983 | 1.08 | 0.889 | – | – | – | – | – | 0.9 |
| NCI-H1563 | 0.988 | 0.967 | 0.886 | 0.864 | – | – | – | – | – | 0.855 |

From the supplement of paper PMC10307832
